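A five-concentration, 48-hour dose response in 96-well plates underlies each endpoint, interpolated linearly between surrounding concentrations. Here, GI50 denotes the concentration required for 50% inhibition of growth. The concentration for full growth arrest is given as TGI.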
Key:
Test in all cases: DTP human tumour cell line panel, 48 h
786-0 renal = tested on: 786-0 renal
A498 renal = tested on: A498 renal
A549 NSCLC = tested on: A549 NSCLC
ACHN renal = tested on: ACHN renal
BT-549 breast = tested on: BT-549 breast
CAKI-1 renal = tested on: CAKI-1 renal
CCRF-CEM leukemia = tested on: CCRF-CEM leukemia
COLO 205 colon = tested on: COLO 205 colon
DU-145 prostate = tested on: DU-145 prostate
EKVX NSCLC = tested on: EKVX NSCLC
HCC-2998 colon = tested on: HCC-2998 colon
HCT-116 colon = tested on: HCT-116 colon
HCT-15 colon = tested on: HCT-15 colon
HL-60(TB) leukemia = tested on: HL-60(TB) leukemia
HOP-62 NSCLC = tested on: HOP-62 NSCLC
HS 578T breast = tested on: HS 578T breast
HT29 colon = tested on: HT29 colon
IGROV1 ovarian = tested on: IGROV1 ovarian
K-562 leukemia = tested on: K-562 leukemia
KM12 colon = tested on: KM12 colon
LOX IMVI melanoma = tested on: LOX IMVI melanoma
M14 melanoma = tested on: M14 melanoma
MALME-3M melanoma = tested on: MALME-3M melanoma
MCF7 breast = tested on: MCF7 breast
MDA-MB-231 breast = tested on: MDA-MB-231 breast
MDA-MB-435 = tested on: MDA-MB-435
MOLT-4 leukemia = tested on: MOLT-4 leukemia
NCI-H226 lung = tested on: NCI-H226 lung
NCI-H23 lung = tested on: NCI-H23 lung
NCI-H460 lung = tested on: NCI-H460 lung
NCI-H522 lung = tested on: NCI-H522 lung
NCI/ADR-RES ovarian = tested on: NCI/ADR-RES ovarian
OVCAR-3 ovarian = tested on: OVCAR-3 ovarian
OVCAR-4 ovarian = tested on: OVCAR-4 ovarian
OVCAR-5 ovarian = tested on: OVCAR-5 ovarian
OVCAR-8 ovarian = tested on: OVCAR-8 ovarian
PC-3 prostate = tested on: PC-3 prostate
RPMI-8226 leukemia = tested on: RPMI-8226 leukemia
RXF 393 renal = tested on: RXF 393 renal
SF-268 CNS = tested on: SF-268 CNS
SF-295 CNS = tested on: SF-295 CNS
SF-539 CNS = tested on: SF-539 CNS
SK-MEL-2 melanoma = tested on: SK-MEL-2 melanoma
SK-MEL-28 melanoma = tested on: SK-MEL-28 melanoma
SK-MEL-5 melanoma = tested on: SK-MEL-5 melanoma
SK-OV-3 ovarian = tested on: SK-OV-3 ovarian
SN12C renal = tested on: SN12C renal
SNB-19 CNS = tested on: SNB-19 CNS
SNB-75 CNS = tested on: SNB-75 CNS
SR leukemia = tested on: SR leukemia
SW-620 colon = tested on: SW-620 colon
T-47D breast = tested on: T-47D breast
TK-10 renal = tested on: TK-10 renal
U251 CNS = tested on: U251 CNS
UACC-257 melanoma = tested on: UACC-257 melanoma
UACC-62 melanoma = tested on: UACC-62 melanoma
UO-31 renal = tested on: UO-31 renal

## Nc1nonc1-c1nc2cnccc2n1C1CCCCC1
786-0 renal
  GI50: 11.1 µM
  TGI: > 25 µM
A498 renal
  GI50: 5.09 µM
  TGI: > 25 µM
A549 NSCLC
  GI50: 13 µM
  TGI: > 25 µM
ACHN renal
  GI50: 12 µM
  TGI: > 25 µM
BT-549 breast
  GI50: 6.29 µM
  TGI: > 25 µM
CAKI-1 renal
  GI50: 11.6 µM
  TGI: > 25 µM
CCRF-CEM leukemia
  GI50: 7.84 µM
  TGI: > 25 µM
COLO 205 colon
  GI50: 6.9 µM
  TGI: > 25 µM
DU-145 prostate
  GI50: 20.5 µM
  TGI: > 25 µM
EKVX NSCLC
  GI50: > 20.3 µM
  TGI: > 25 µM
HCC-2998 colon
  GI50: > 25 µM
  TGI: > 25 µM
HCT-116 colon
  GI50: 7.45 µM
  TGI: > 25 µM
HCT-15 colon
  GI50: 13.4 µM
  TGI: > 25 µM
HL-60(TB) leukemia
  GI50: 7.25 µM
  TGI: 19.6 µM
HOP-62 NSCLC
  GI50: > 25 µM
  TGI: > 25 µM
HS 578T breast
  GI50: 13.9 µM
  TGI: > 25 µM
HT29 colon
  GI50: 9.87 µM
  TGI: > 25 µM
IGROV1 ovarian
  GI50: > 23.1 µM
  TGI: > 25 µM
K-562 leukemia
  GI50: 11 µM
  TGI: > 25 µM
KM12 colon
  GI50: 9.16 µM
  TGI: > 25 µM
LOX IMVI melanoma
  GI50: 16.3 µM
  TGI: > 25 µM
M14 melanoma
  GI50: 24 µM
  TGI: > 25 µM
MALME-3M melanoma
  GI50: > 25 µM
  TGI: > 25 µM
MCF7 breast
  GI50: 9.44 µM
  TGI: > 25 µM
MDA-MB-231 breast
  GI50: > 25 µM
  TGI: > 25 µM
MDA-MB-435
  GI50: 22.5 µM
  TGI: > 25 µM
MOLT-4 leukemia
  GI50: 12 µM
  TGI: > 25 µM
NCI-H226 lung
  GI50: 12.9 µM
  TGI: > 25 µM
NCI-H23 lung
  GI50: > 18.5 µM
  TGI: > 25 µM
NCI-H460 lung
  GI50: 10.3 µM
  TGI: > 25 µM
NCI-H522 lung
  GI50: 6.01 µM
  TGI: 23.4 µM
NCI/ADR-RES ovarian
  GI50: > 22.1 µM
  TGI: > 25 µM
OVCAR-3 ovarian
  GI50: 10.7 µM
  TGI: > 25 µM
OVCAR-4 ovarian
  GI50: > 16.6 µM
  TGI: > 25 µM
OVCAR-5 ovarian
  GI50: > 25 µM
  TGI: > 25 µM
OVCAR-8 ovarian
  GI50: 12.8 µM
  TGI: > 25 µM
PC-3 prostate
  GI50: > 19.9 µM
  TGI: > 25 µM
RPMI-8226 leukemia
  GI50: 16.1 µM
  TGI: > 25 µM
RXF 393 renal
  GI50: 4.8 µM
  TGI: > 25 µM
SF-268 CNS
  GI50: > 25 µM
  TGI: > 25 µM
SF-295 CNS
  GI50: 9.48 µM
  TGI: > 25 µM
SF-539 CNS
  GI50: 3.7 µM
  TGI: > 25 µM
SK-MEL-2 melanoma
  GI50: 12 µM
  TGI: > 25 µM
SK-MEL-28 melanoma
  GI50: > 25 µM
  TGI: > 25 µM
SK-MEL-5 melanoma
  GI50: 6.04 µM
  TGI: > 19.2 µM
SK-OV-3 ovarian
  GI50: 18.8 µM
  TGI: > 25 µM
SN12C renal
  GI50: 12.5 µM
  TGI: > 25 µM
SNB-19 CNS
  GI50: > 25 µM
  TGI: > 25 µM
SNB-75 CNS
  GI50: 2.42 µM
  TGI: > 25 µM
SR leukemia
  GI50: 7.35 µM
  TGI: > 25 µM
SW-620 colon
  GI50: 14 µM
  TGI: > 25 µM
T-47D breast
  GI50: 13.3 µM
  TGI: > 25 µM
TK-10 renal
  GI50: 3.44 µM
  TGI: > 25 µM
U251 CNS
  GI50: 16.5 µM
  TGI: > 25 µM
UACC-257 melanoma
  GI50: > 25 µM
  TGI: > 25 µM
UACC-62 melanoma
  GI50: 14.3 µM
  TGI: > 25 µM
UO-31 renal
  GI50: > 24 µM
  TGI: > 25 µM

## COC(=O)C1=C(OC(=O)/C(=C/c2ccccc2)c2ccccc2)C(C(=O)OC)[C@@]2(O)[C@@H](C(=O)OC)[C@H](C)C[C@@H]1[C@@H]2C(=O)OC (stereo not given in full)
786-0 renal
  TGI: > 100 µM
A498 renal
  TGI: > 100 µM
A549 NSCLC
  TGI: > 100 µM
ACHN renal
  TGI: > 100 µM
BT-549 breast
  TGI: > 100 µM
CAKI-1 renal
  TGI: > 100 µM
CCRF-CEM leukemia
  TGI: > 100 µM
COLO 205 colon
  TGI: > 100 µM
DU-145 prostate
  TGI: > 100 µM
EKVX NSCLC
  TGI: > 100 µM
HCC-2998 colon
  TGI: > 100 µM
HCT-116 colon
  TGI: > 100 µM
HCT-15 colon
  TGI: > 100 µM
HL-60(TB) leukemia
  TGI: > 100 µM
HOP-62 NSCLC
  TGI: > 100 µM
HS 578T breast
  TGI: > 100 µM
HT29 colon
  TGI: > 100 µM
IGROV1 ovarian
  TGI: > 100 µM
K-562 leukemia
  TGI: > 100 µM
KM12 colon
  TGI: > 100 µM
LOX IMVI melanoma
  TGI: > 100 µM
M14 melanoma
  TGI: > 100 µM
MALME-3M melanoma
  TGI: > 100 µM
MCF7 breast
  TGI: > 100 µM
MDA-MB-231 breast
  TGI: > 100 µM
MDA-MB-435
  TGI: > 100 µM
NCI-H226 lung
  TGI: > 100 µM
NCI-H23 lung
  TGI: > 100 µM
NCI-H460 lung
  TGI: > 100 µM
NCI-H522 lung
  TGI: > 100 µM
NCI/ADR-RES ovarian
  TGI: > 100 µM
OVCAR-3 ovarian
  TGI: > 100 µM
OVCAR-4 ovarian
  TGI: > 100 µM
OVCAR-5 ovarian
  TGI: > 100 µM
OVCAR-8 ovarian
  TGI: > 100 µM
PC-3 prostate
  TGI: > 100 µM
RPMI-8226 leukemia
  TGI: > 100 µM
RXF 393 renal
  TGI: > 100 µM
SF-268 CNS
  TGI: > 100 µM
SF-295 CNS
  TGI: > 100 µM
SF-539 CNS
  TGI: > 100 µM
SK-MEL-2 melanoma
  TGI: > 100 µM
SK-MEL-28 melanoma
  TGI: > 100 µM
SK-MEL-5 melanoma
  TGI: > 100 µM
SK-OV-3 ovarian
  TGI: > 100 µM
SN12C renal
  TGI: > 100 µM
SNB-19 CNS
  TGI: > 100 µM
SNB-75 CNS
  TGI: > 100 µM
SR leukemia
  TGI: > 100 µM
SW-620 colon
  TGI: > 100 µM
T-47D breast
  TGI: > 100 µM
TK-10 renal
  TGI: > 100 µM
U251 CNS
  TGI: > 100 µM
UACC-257 melanoma
  TGI: > 100 µM
UACC-62 melanoma
  TGI: > 100 µM
UO-31 renal
  TGI: > 100 µM
